In series [1] the target is Human immunodeficiency virus type 1 integrase (Human immunodeficiency virus 1, UniProt Q7ZJM1). Put plainly: Inhibition of recombinant HIV1 integrase expressed in Escherichia coli Rosetta assessed as reduction in 3' end processing activity using [32P]-labelled U5B/U5A DNA as substrate measured after 2 hrs by polyacrylamide gel electrophoresis method.
The nature of series [2]: Selectivity index, ratio of CC50 for cytotoxicity against African green monkey Vero cells assessed as reduction in cell viability measured after 72 hrs by MTT assay to EC50 for antiviral activity against Herpes simplex virus 1 infected in African green monkey Vero cells assessed as reduction in plaque formation pretreated with compound for 1 hr followed by viral infection at 0.01 PFU/cells for 1 hr by plaque reduction assay. The format is toxicity, cell-based. As to conditions: read-out: Ratio CC50/EC50. (In general: Tetrazolium assays rely on reduction of a dye to a coloured formazan, in cell work by metabolically active cells.)

Series [3] is described as follows: Drug penetration in human HCT116 cells nucleus at 200 uM measured after 2 days by fluorescence microscopy. In kind it is ADME, subcellular. As to conditions: hct-116, 48 h.
Series [4] addresses T1, Transcriptional activator protein LuxR (Aliivibrio fischeri) (UniProt P12746).
T1 sequence (whole entry): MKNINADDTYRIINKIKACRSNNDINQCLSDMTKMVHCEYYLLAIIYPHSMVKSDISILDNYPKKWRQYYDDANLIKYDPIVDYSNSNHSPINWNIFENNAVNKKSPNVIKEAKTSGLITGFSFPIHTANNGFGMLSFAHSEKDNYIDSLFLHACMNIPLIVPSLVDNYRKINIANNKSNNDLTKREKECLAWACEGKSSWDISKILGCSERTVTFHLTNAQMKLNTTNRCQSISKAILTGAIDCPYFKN
Put plainly: Inhibition of Aliivibrio fischeri LuxR quorum sensing system expressed in Escherichia coli MG1655 pVFR1 harboring Prf promoter assessed as reduction in LuxR transcriptional activity by measuring Lux gene expression in presence of LuxR protein activator and presence of 10^-6 M AHL by bioluminescence assay relative to control.

Series [5] has as its system Calf thymus DNA. Put plainly: Binding affinity to calf thymus DNA by fluorescence spectra analysis. The note with it: Bos taurus. The format is nucleic-acid assay.
For series [6], the system named is Human alphaherpesvirus 1. Put plainly: Antiviral activity against Herpes simplex virus 1 infected in African green monkey vero cells assessed as reduction in plaque formation treated 1 hr post viral infection by plaque reduction assay. In kind it is functional, organism-based. The note with it: Human alphaherpesvirus 1, Vero. (In general: In a plaque reduction assay, fewer plaques than in the control indicate reduced infectivity or spread.)

Series [7] in a line: Cytotoxicity against human NKE cells assessed as reduction in cell viability by MTT assay. The format is cell-based.
Series [8] relates to MCF7. Put plainly: Cytotoxicity against human MCF7 cells assessed as reduction in cell viability by MTT assay. In kind it is cell-based.
For series [9], the target named is T1, Transcriptional activator protein LuxR (Aliivibrio fischeri). Put plainly: Inhibition of Aliivibrio fischeri LuxR quorum sensing system expressed in Escherichia coli MG1655 pVFR1 harboring Prf promoter assessed as reduction in LuxR transcriptional activity by measuring Lux gene expression in presence of LuxR protein activator and presence of 10^-7 M AHL by bioluminescence assay relative to control.

Series [10] concerns Aliivibrio fischeri. Put plainly: Binding affinity to Aliivibrio fischeri H-NS dependent PluxC promoter assessed as luminescence intensity measured after 3 hrs by bioluminescence assay relative to control.
For series [11], the system named is Aliivibrio logei. Put plainly: Binding affinity to Aliivibrio logei H-NS dependent Pr2 promoter assessed as luminescence intensity measured after 3 hrs by bioluminescence assay relative to control.
Series [12] can be described thus: Selectivity index, ratio of CC50 for cytotoxicity against African green monkey Vero cells assessed as reduction in cell viability measured after 72 hrs by MTT assay to EC50 for antiviral activity against Herpes simplex virus 1 infected in African green monkey vero cells assessed as reduction in plaque formation treated 1 hr post viral infection. In kind it is toxicity, cell-based. The note with it: read-out: Ratio CC50/EC50.

Series [13] addresses T1, Transcriptional activator protein LuxR (Aliivibrio fischeri). Put plainly: Inhibition of Aliivibrio fischeri LuxR quorum sensing system expressed in Escherichia coli MG1655 pVFR1 harboring Prf promoter assessed as reduction in LuxR transcriptional activity by measuring Lux gene expression in presence of LuxR protein activator and presence of 10^-8 M AHL by bioluminescence assay relative to control.

Series [14] concerns Aliivibrio logei. Put plainly: Binding affinity to Aliivibrio logei H-NS dependent Pr1 promoter assessed as luminescence intensity measured after 3 hrs by bioluminescence assay relative to control.
Series [15] is described as follows: Solubility of the compound in water. In kind it is physicochemical. The note with it: buffer.
Series [16] deals with T1, Transcriptional activator protein LuxR (Aliivibrio fischeri). Put plainly: Inhibition of Aliivibrio fischeri LuxR quorum sensing system expressed in Escherichia coli MG1655 pVFR1 harboring Prf promoter assessed as reduction in LuxR transcriptional activity by measuring Lux gene expression in presence of LuxR protein activator and absence of AHL by bioluminescence assay relative to control.

Series [17] concerns Calf thymus DNA. Put plainly: Binding affinity to calf thymus DNA assessed as appearance of positive band by cholesteric liquid crystal dispersion-based circular dichroism method. In kind it is nucleic-acid assay. The note with it: Bos taurus.
In series [18] the test system is HCT-116. Put plainly: Cytotoxicity against human HCT116 cells assessed as reduction in cell viability by MTT assay. The format is cell-based.
Series [19] concerns Calf thymus DNA. Put plainly: Binding affinity to calf thymus DNA assessed as hyperchromic effect by UV-Vis spectroscopy. The format is nucleic-acid assay. As to conditions: Bos taurus.
The subject of series [20] is Aliivibrio fischeri. Put plainly: Binding affinity to Aliivibrio fischeri H-NS dependent Prf promoter assessed as luminescence intensity measured after 3 hrs by bioluminescence assay relative to control.

Converted amounts (≈) assume the structure as drawn. The source made the active and inactive calls. The calls are words filed in the database; no cut-off is given here. Bounds are passed on as bounds.

What is called IC50 is the concentration that inhibits the measured activity by half. The term EC50 denotes the concentration that produces a half-maximal response.

Sequence of Human immunodeficiency virus type 1 integrase (Q7ZJM1 whole entry): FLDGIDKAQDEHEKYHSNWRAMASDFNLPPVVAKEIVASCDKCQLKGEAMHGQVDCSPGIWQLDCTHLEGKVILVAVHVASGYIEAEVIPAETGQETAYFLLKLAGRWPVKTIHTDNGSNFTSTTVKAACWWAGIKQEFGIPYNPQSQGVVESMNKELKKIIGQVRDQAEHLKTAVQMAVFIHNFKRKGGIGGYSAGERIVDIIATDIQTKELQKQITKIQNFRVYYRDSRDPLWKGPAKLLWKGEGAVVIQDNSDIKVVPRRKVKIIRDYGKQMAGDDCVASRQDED

On to `CN1CCN(c2ccc3nc(-c4ccc5nc(CNC(=O)CCN6CCN(CCC(=O)NCc7nc8ccc(-c9nc%10ccc(N%11CCN(C)CC%11)cc%10[nH]9)cc8[nH]7)CC6)[nH]c5c4)[nH]c3c2)CC1`, for which, in series [1], the IC50 worked out at 7 µM.

As for `CN(C)CCCNC(=O)c1ccc2nc(-c3ccc4nc(CNC(=O)CCN5CCN(CCC(=O)NCc6nc7ccc(-c8nc9ccc(C(=O)NCCCN(C)C)cc9[nH]8)cc7[nH]6)CC5)[nH]c4c3)[nH]c2c1`, the selectivity ratio at 72 h in series [2] was determined as 703; in series [12], 18. Besides, the Drug uptake entry in series [3] is reported as “Active”. Besides, the fold change (FC) in series [4] amounted to 8; in series [9], 3; in [13] it was 1; in series [16], 27. Besides, the outcome in series [5], in series [17] and in series [19] was Active. Further, the EC50 in [6] was determined as 30 µg/mL (≈ 30.7 µM). Moreover, the IC50 in series [7] was > 300 µM; in series [1] it was 2.6 µM; in [8] it was > 300 µM; in series [18], > 300 µM. The Flu intensity in series [10] stood at 110000; in [11], 150000; in series [14] it was 210000; in series [20] it was 122000. In addition, the solubility entry in series [15] was “Soluble”.

Consider `CN1CCN(c2ccc3nc(-c4ccc5nc(CNC(=O)CN6CCN(CC(=O)NCc7nc8ccc(-c9nc%10ccc(N%11CCN(C)CC%11)cc%10[nH]9)cc8[nH]7)CC6)[nH]c5c4)[nH]c3c2)CC1`, for which, in [1], the IC50 was > 15 µM.

Regarding `Nc1nc2c(ncn2COCCO)c(=O)[nH]1` [ACYCLOVIR], the selectivity ratio at 72 h in series [2] amounted to 86; in series [12], 916. In addition, in [6], the half-maximal effective concentration (EC50) turned out to be 1.2 µg/mL (≈ 5.33 µM).

Turning to `CN(C)CCCNC(=O)c1ccc2nc(-c3ccc4nc(CN)[nH]c4c3)[nH]c2c1`, the selectivity ratio at 72 h in series [2] stood at 11; in series [12], 35. Further, the EC50 in series [6] worked out at 27 µg/mL (≈ 69 µM).

Turning to `CN(C)CCCNC(=O)c1ccc2nc(-c3ccc4nc(CNC(=O)CCCN5CCN(CCCC(=O)NCc6nc7ccc(-c8nc9ccc(C(=O)NCCCN(C)C)cc9[nH]8)cc7[nH]6)CC5)[nH]c4c3)[nH]c2c1`, the selectivity ratio at 72 h in series [2] is 95; in series [12], 70. In series [3], the Drug uptake entry was “Active”. In addition, the result in series [5] was Active. In addition, the EC50 in series [6] came out at 15 µg/mL (≈ 14.9 µM). The IC50 in [7] was > 500 µM; in series [1], 1.8 µM; in [8], > 500 µM; in series [18], > 500 µM. Further, the Flu intensity in series [10] amounted to 17000; in series [11] it was 50000; in series [14], 3300; in [20], 4400. For the same compound, the solubility entry in series [15] is reported as “Soluble”.

Regarding `CN1CCN(c2ccc3nc(-c4ccc5nc(CNC(=O)CCCCN6CCN(CCCCC(=O)NCc7nc8ccc(-c9nc%10ccc(N%11CCN(C)CC%11)cc%10[nH]9)cc8[nH]7)CC6)[nH]c5c4)[nH]c3c2)CC1`, the IC50 in [1] was determined as 3.9 µM.

As for `CN(C)CCCNC(=O)c1ccc2nc(-c3ccc4nc(CNC(=O)CCCCN5CCN(CCCCC(=O)NCc6nc7ccc(-c8nc9ccc(C(=O)NCCCN(C)C)cc9[nH]8)cc7[nH]6)CC5)[nH]c4c3)[nH]c2c1`, the Drug uptake result in [3] is recorded as “Active”. Further, in [6], the EC50 came to 31 µg/mL (≈ 30 µM). Also, the IC50 in [7] is > 500 µM; in [1], 1.1 µM; in series [8], > 500 µM; in series [18] it was > 500 µM. Besides, the Flu intensity in series [10] was determined as 3500; in [11] it was 1800; in series [14] it was 1000; in [20] it was 4300. Moreover, in [12], the selectivity ratio at 72 h is 34. Moreover, the solubility entry in series [15] is “Soluble”. The outcome in series [17] and in series [19] was Active.

With `CN(C)CCCNC(=O)c1ccc2nc(-c3ccc4nc(CNC(=O)CN5CCN(CC(=O)NCc6nc7ccc(-c8nc9ccc(C(=O)NCCCN(C)C)cc9[nH]8)cc7[nH]6)CC5)[nH]c4c3)[nH]c2c1`, the selectivity ratio at 72 h was 5750 in series [2] and 34 in series [12]. Further, in series [3], the Drug uptake result is reported as “Active”. Moreover, in series [6], the EC50 stood at 16.7 µg/mL (≈ 17.6 µM). Further, the IC50 in series [7] is > 200 µM; in [1], 2.1 µM; in series [8], > 200 µM; in [18], > 200 µM. For the same compound, the Flu intensity stood at 38000 in series [10], 18000 in series [11], 1700 in [14] and 4100 in series [20]. Besides, in series [15], the solubility entry is listed as “Soluble”.

As to `CN1CCN(c2ccc3nc(-c4ccc5nc(CNC(=O)CCCN6CCN(CCCC(=O)NCc7nc8ccc(-c9nc%10ccc(N%11CCN(C)CC%11)cc%10[nH]9)cc8[nH]7)CC6)[nH]c5c4)[nH]c3c2)CC1`, the IC50 in series [1] was found to be 9.9 µM.

For the origin of these results see ChEMBL document CHEMBL4627304, “DNA sequence-specific ligands. XVIII. Synthesis, physico-chemical properties; genetic, virological, and biochemical studies of fluorescent dimeric bisbenzimidazoles DBPA(n)” (Bioorg Med Chem, 2020).
